Laboratory results as given in the SangsterLogP compilation.

Assays:
[1] = not given; remark: listed apart in the source
[2] = not given; remark: listed apart in the source
[3] = not given; remark: listed apart in the source
[4] = method code SF-GLC, from DOI: 10.1021/j100260a019
[5] = method code SF, from DOI: 10.1093/jnci/60.2.345, PMID: 621753
[6] = method code SF-HPLC, from DOI: 10.1016/j.jchromb.2013.02.012, PMID: 23500352; conditions: pH 4.4
[7] = not given; remark: listed apart in the source
[8] = not given; remark: listed apart in the source
[9] = not given; remark: listed apart in the source
[10] = method code SF-GLC, from DOI: 10.1021/je970020p
[11] = not given; remark: listed apart in the source
[12] = not given; remark: listed apart in the source
[13] = method code HPLC, from DOI: 10.1016/j.bmcl.2004.01.062, PMID: 15026043; conditions: pH 5.5
[14] = not given; remark: listed apart in the source
[15] = method code SF-AS, from DOI: 10.1016/0045-6535(84)90003-1
[16] = method code SF-AS, from DOI: 10.1039/ft9938903773
[17] = method code SF-RC, from DOI: 10.1021/jm901332c, PMID: 19921956; conditions: pH 7.4
[18] = method code SF, from DOI: 10.1016/0006-2952(91)90449-f, PMID: 1930261; conditions: pH 2.0
[19] = not given; remark: listed apart in the source
[20] = method code HPLC, from DOI: 10.1016/j.ejmech.2015.05.022, PMID: 26005028; conditions: pH 7.1
[21] = method code SF-AS, from PMID: 640322; conditions: pH 4.0
[22] = method code SF-GLC, from DOI: 10.1021/jm00240a002, PMID: 1151965
[23] = method code SF-HPLC, from DOI: 10.1016/j.bmcl.2004.01.062, PMID: 15026043; conditions: pH 5.5
[24] = method code SF-HPLC, from DOI: 10.1002/jat.2550130210, PMID: 8486911; conditions: pH 13.0
[25] = method code SF-FL, from DOI: 10.1016/0006-2952(96)00248-1, PMID: 8687500
[26] = method code SF-RC, from DOI: 10.1002/ps.2780190203
[27] = not given; remark: listed apart in the source
[28] = not given; remark: listed apart in the source
[29] = method code SF-GLC, from DOI: 10.1016/s0003-2670(00)84505-5
[30] = method code SF-AS, from DOI: 10.1111/j.2042-7158.1989.tb06384.x, PMID: 2576447; conditions: pH 7.4
[31] = method code SF-GLC, from Park, Y.; Park, S. (2000). Determination and prediction of octanol/water partition coefficients and air-water partition coefficients for environmental toxic chemicals. 11(7)773-779.
[32] = not given; remark: listed apart in the source
[33] = not given; remark: listed apart in the source
[34] = pH 5.6
[35] = method code SF-GLC, from DOI: 10.1016/0043-1354(83)90068-4
[36] = method code SF-RC, from DOI: 10.1016/0014-2999(79)90231-0, PMID: 527663

## C=CC(=O)OC
other
  logP: 0.74

## Nc1ccccc1N
[1]
  logP: 0.15

## Oc1c(Cl)cccc1Cl
[2]
  logP: 2.92

## Nc1cc(Cl)c(Cl)cc1Cl
[3]
  logP: 3.31

## CC1CCC(C)O1 (stereo not given)
[4]
  logP: 1.22

## O=NN(CCCl)C(=O)N1CCCC1
[5]
  logP: 0.9

## CS(=O)(=O)OC[C@H](O)[C@@H](O)COS(C)(=O)=O
[6]
  logD: -1.58

## Nc1ccc(F)cc1F
[7]
  logP: 1.56

## Cc1ccccc1[N+](=O)[O-]
[8]
  logP: 2.17

## Oc1c(F)c(F)c(F)c(F)c1F
[9]
  logP: 2.96

## Clc1cc(Cl)cc(Cl)c1
[10]
  logP: 4.09

## CCCCCC(C)=O
[11]
  logP: 2.08

## COc1ccc(CC2C(=O)NC(C)C(=O)N(C)C3Cc4ccc(cc4)Oc4cc(ccc4OC(C)=O)CC(C(=O)NC(C)C(=O)NC(C)C(=O)N2C)N(C)C3=O)cc1 (stereo not given)
[12]
  logP: 3.19

## CCOC(=O)C(Cc1ccc(OC(=O)N(C)C)cc1)NC(=O)C1N(S(=O)(=O)c2cnn(C)c2)CSC1(C)C (stereo not given)
[13]
  logD: 2.14

## c1ccc(-c2ccccc2)cc1
[7]
  logP: 4.05

## Nc1ccc(O)c([N+](=O)[O-])c1
[1]
  logP: 0.96

## Oc1cccc(Br)c1Br
[9]
  logP: 3.37

## O=[N+]([O-])c1ccc(CCBr)cc1
[14]
  logP: 2.9

## Oc1c(Cl)ccc(Cl)c1Cl
[15]
  logP: 3.77

## O=C1C=CC(=O)C=C1
[16]
  logP: 0.3

## O=C1C=CC(=O)c2c(O)ccc(O)c21
[16]
  logP: 1.79

## Cn1cnc2c(Cl)ncnc21
[17]
  logD: 0.38

## O=C1NC(=O)C(=O)C(=O)N1
[18]
  logD: -1.86

## Oc1ccc(Cl)c(Cl)c1Cl
[15]
  logP: 3.8

## COc1ccc(CC2C(=O)NC(C)C(=O)N(C)C3Cc4ccc(cc4)Oc4cc(ccc4O)CC(C(=O)NC(C)C(=O)NC(C)C(=O)N2C)N(C)C3=O)cc1 (stereo not given)
[12]
  logP: 2.72

## CCC(CC)C(=O)O
[19]
  logP: 1.68

## O=[N+]([O-])c1ccc(Cl)c(Cl)c1Cl
[14]
  logP: 3.54

## CC(=O)OC[C@H]1O[C@@H](OC(C)=O)[C@H](NC(=O)CBr)[C@@H](OC(C)=O)[C@@H]1OC(C)=O
[20]
  logD: 0.23

## COc1ccc(CC2C(=O)NC(C)C(=O)N(C)C3Cc4ccc(cc4)Oc4cc(ccc4OC)CC(C(=O)NC(C)C(=O)NC(C)C(=O)N2C)N(C)C3=O)cc1 (stereo not given)
[12]
  logP: 3.17

## CCCCN(N=O)C(N)=O
[21]
  logD: 1.04

## O=C1NC(=O)C(O)C(=O)N1
[18]
  logD: -1.85

## CS(=O)(=O)OC[C@H](O)[C@@H]1CO1
[6]
  logD: -1.18

## CCOCC
[22]
  logP: 0.89

## CCCOC(C)=O
[11]
  logP: 1.11

## CN(C)C(=O)Oc1ccc(CC(C(=O)OCC(C)(C)C)C(=O)C2N(S(=O)(=O)c3cnn(C)c3)CSC2(C)C)cc1 (stereo not given)
[23]
  logD: 3.42

## CC(C)CNCC(C)C
[24]
  logD: 2.67

## COc1cccc2c1C(=O)c1c(O)c3c(c(O)c1C2=O)C[C@@](O)(C(C)=O)C[C@@H]3O[C@H]1C[C@H](NC(=O)Cc2ccccc2NC(=O)[C@@H]2O[C@H](C(=O)O)[C@@H](O)[C@H](O)[C@H]2O)[C@H](O)[C@H](C)O1
[25]
  logP: -1.1

## CC(C)COCC(C)C
[4]
  logP: 2.78

## Cc1cc(OCC(=O)O)ccc1S(C)(=O)=O
[26]
  logP: 0.54

## COc1ccnnc1
[27]
  logP: 0.24

## CN(C)C(=O)Oc1ccc(CC(NC(=O)C2N(S(=O)(=O)c3cnn(C)c3)CSC2(C)C)C(=O)OCOC(=O)C(C)(C)C)cc1 (stereo not given)
[13]
  logD: 3.14

## CC(C)(C)CO
[28]
  logP: 1.29

## COc1cccc2c1C(=O)c1c(O)c3c(c(O)c1C2=O)C[C@@](O)(C(C)=O)C[C@@H]3O[C@H]1C[C@H](NC(=O)OCc2ccc(NC(=O)[C@@H]3O[C@H](C(=O)O)[C@@H](O)[C@H](O)[C@H]3O)cc2)[C@H](O)[C@H](C)O1
[25]
  logP: -1.7

## COc1cccc2c1C(=O)c1c(O)c3c(c(O)c1C2=O)C[C@@](O)(C(C)=O)C[C@@H]3O[C@H]1C[C@H](NC(=O)CCCNC(=O)[C@@H]2O[C@H](C(=O)O)[C@@H](O)[C@H](O)[C@H]2O)[C@H](O)[C@H](C)O1
[25]
  logP: -2

## COc1cc(Cl)c(Cl)cc1O
[29]
  logP: 3.19

## O=c1ccc(O)n[nH]1
[26]
  logP: -0.63

## Cn1c(=O)[nH]c(=O)c2nc[nH]c21
[30]
  logD: -0.72

## CCCCCC(CCC)C(=O)O (stereo not given)
[19]
  logP: 3.2

## CCCn1c(=O)n(C)c(=O)c2nc[nH]c21
[30]
  logD: 1.02

## OCCBr
[28]
  logP: 0.29

## c1ccnnc1
[27]
  logP: -0.15

## CCCNC(=O)CBr
[20]
  logD: 0.91

## C1CCOC1
[31]
  logP: 0.5

## O=c1[nH]cnc2c1ncn2[C@@H]1O[C@H](CO)[C@@H](O)[C@H]1O
[32]
  logP: -1.81

## CC(C)CC(=O)NC(N)=O
[33]
  logP: 0.45

## Nc1c(Cl)c(Cl)cc(Cl)c1Cl
[3]
  logP: 4.06

## CC(=O)CC(C)C
[31]
  logP: 1.4

## FC(F)OC(F)(F)C(F)Cl (stereo not given)
[22]
  logP: 2.1

## CCOc1cccc(O)c1
[34]
  logD: 1.98

## Cn1cnc2c(Br)ncnc21
[17]
  logD: 0.52

## BrC=C(Br)Br
[35]
  logP: 3.2

## NS(=O)(=O)c1ccc(O)cc1
[34]
  logD: 0.06

## Nc1ncnc2nn[nH]c12
[32]
  logP: -0.96

## BrC1CCCCC1
[35]
  logP: 3.2

## CC(C)C(=O)NC(N)=O
[33]
  logP: 0.04

## CCN(CC)C(C)=O
[8]
  logP: 0.37

## CCC(c1ccccc1)c1c(O)c2ccccc2oc1=O (stereo not given)
[36]
  logP: 3.62

## Clc1cc(Cl)c(Cl)c(Cl)c1Cl
[10]
  logP: 5.2

## COCCOCCOC(=O)C(Cc1ccc(OC(=O)N(C)C)cc1)NC(=O)C1N(S(=O)(=O)c2cnn(C)c2)CSC1(C)C (stereo not given)
[23]
  logD: 1.41

## C=CCNCC=C
[24]
  logD: 1.08

## NC(=O)N(CCCCCCN(N=O)C(N)=O)N=O
[21]
  logD: 0.58

## C=CC(=O)OCC(C)(C)C
other
  logP: 2.32

## Oc1c(Cl)c(Cl)cc(Cl)c1Cl
[2]
  logP: 4.47

## O=NN(CCCl)C(=O)NCCO
[5]
  logP: 0.3

## O=C(O)[C@H]1O[C@H](O)[C@H](O)[C@@H](O)[C@@H]1O
[36]; pH 1.0
  logD: -2.57
